Test results reported in the CheMixHub viscosity set.

Test: xn = mol fraction of the nth substance listed

CC(=O)CC(C)C + CCCCCCO
viscosity [mPa·s], 100 kPa
Details | x1 = 0.0851 | x1 = 0.1723 | x1 = 0.2541 | x1 = 0.3619 | x1 = 0.4246 | x1 = 0.5566 | x1 = 0.6612 | x1 = 0.7441 | x1 = 0.8559 | x1 = 0.9468
293.15 K | 3.74 | 2.71 | 2 | 1.37 | 1.12 | 0.78 | 0.65 | 0.6 | 0.56 | 0.56
303.15 K | 2.94 | 2.14 | 1.62 | 1.13 | 0.93 | 0.66 | 0.53 | 0.49 | 0.48 | 0.49
313.15 K | 2.32 | 1.79 | 1.38 | 0.96 | 0.79 | 0.54 | 0.43 | 0.41 | 0.41 | 0.43
323.15 K | 1.88 | 1.48 | 1.15 | 0.8 | 0.66 | 0.45 | 0.35 | 0.33 | 0.34 | 0.37

CCOCC + ClC(Cl)Cl
101.33 kPa
Details | viscosity [mPa·s]
293.15 K, x2 = 0.1704 | 0.295
293.15 K, x2 = 0.2909 | 0.354
293.15 K, x2 = 0.4425 | 0.416
293.15 K, x2 = 0.562 | 0.466
293.15 K, x2 = 0.6848 | 0.507
293.15 K, x2 = 0.8038 | 0.536
293.15 K, x2 = 0.8989 | 0.555
298.15 K, x1 = 0.274 | 0.472
298.15 K, x1 = 0.528 | 0.397
298.15 K, x1 = 0.672 | 0.34
298.15 K, x1 = 0.863 | 0.268
298.15 K, x2 = 0.1567 | 0.282
298.15 K, x2 = 0.3094 | 0.343
298.15 K, x2 = 0.4329 | 0.395
298.15 K, x2 = 0.5582 | 0.445
298.15 K, x2 = 0.6897 | 0.489
298.15 K, x2 = 0.8073 | 0.519
298.15 K, x2 = 0.8947 | 0.536

CC(=O)CC(C)C + O=C1CCCCC1
298.15 K, 101 kPa
Details | viscosity [mPa·s]
x1 = 0.1218 | 1.58
x1 = 0.2067 | 1.371
x1 = 0.3146 | 1.163
x1 = 0.3931 | 1.037
x1 = 0.534 | 0.872
x1 = 0.6373 | 0.773
x1 = 0.7694 | 0.672
x1 = 0.888 | 0.599

C=C(C)[C@@H]1CC=C(C)CC1 + COC(C)(C)C
298.15 K, 101.33 kPa
Details | viscosity [mPa·s]
x2 = 0.0694 | 0.807
x2 = 0.1591 | 0.755
x2 = 0.257 | 0.7
x2 = 0.3599 | 0.641
x2 = 0.491 | 0.572
x2 = 0.6599 | 0.486
x2 = 0.7344 | 0.449
x2 = 0.8017 | 0.418
x2 = 0.8714 | 0.386
x2 = 0.9373 | 0.356
x2 = 0.9672 | 0.344

O=C1CCCCC1 + CCCCCCCCCCCC
viscosity [mPa·s], 101.33 kPa
Details | x1 = 0.1085 | x1 = 0.1979 | x1 = 0.3049 | x1 = 0.4052 | x1 = 0.5049 | x1 = 0.6012 | x1 = 0.7012 | x1 = 0.8014 | x1 = 0.9008
298.15 K | 1.348 | 1.352 | 1.368 | 1.393 | 1.42 | 1.474 | 1.533 | 1.614 | 1.75
303.15 K | 1.237 | 1.238 | 1.252 | 1.272 | 1.302 | 1.344 | 1.398 | 1.469 | 1.623
308.15 K | 1.135 | 1.139 | 1.151 | 1.171 | 1.199 | 1.232 | 1.281 | 1.349 | 1.483

CC(=O)CC(C)C + CCCCOC(C)=O
298.15 K, 101.33 kPa
Details | viscosity [mPa·s]
x1 = 0.128 | 0.66
x1 = 0.2471 | 0.643
x1 = 0.3594 | 0.628
x1 = 0.4715 | 0.612
x1 = 0.5881 | 0.595
x1 = 0.6863 | 0.583
x1 = 0.7901 | 0.57
x1 = 0.8902 | 0.556

CCCCCCCCCCCCCC[P+](CCCCCC)(CCCCCC)CCCCCC.c1nnc[n-]1 + CCCCCCn1cc[n+](C)c1.O=S(=O)([N-]S(=O)(=O)C(F)(F)F)C(F)(F)F
viscosity [mPa·s], 100 kPa
Details | x1 = 0.107 | x1 = 0.208 | x1 = 0.307 | x1 = 0.4 | x1 = 0.507 | x1 = 0.622 | x1 = 0.718 | x1 = 0.805 | x1 = 0.9
293.15 K | 132 | 220 | 308 | 452 | 677 | 901 | 1162 | 1349 | 1458
298.15 K | 103 | 165 | 227 | 329 | 485 | 633 | 811 | 932 | 1013
303.15 K | 81 | 127 | 171 | 245 | 355 | 456 | 579 | 664 | 720
308.15 K | 65 | 99 | 132 | 186 | 267 | 337 | 422 | 484 | 524
313.15 K | 54 | 79 | 104 | 145 | 204 | 253 | 314 | 359 | 389
318.15 K | – | 64 | 83 | 115 | 159 | 194 | 239 | 273 | 296
323.15 K | – | 53 | 67 | 93 | 127 | 152 | 185 | 211 | 229

O=C1CCCCC1 + CCCCOC(C)=O
viscosity [mPa·s], 101 kPa
Details | 298.15 K | 303.15 K | 308.15 K | 313.15 K
x1 = 0.1162 | 0.689 | – | – | –
x1 = 0.2283 | 0.732 | – | – | –
x1 = 0.3365 | 0.788 | – | – | –
x1 = 0.441 | 0.871 | – | – | –
x1 = 0.542 | 0.976 | – | – | –
x1 = 0.6397 | 1.109 | – | – | –
x1 = 0.7341 | 1.281 | – | – | –
x1 = 0.8256 | 1.478 | – | – | –
x1 = 0.9142 | 1.731 | – | – | –
x2 = 0.0814 | 1.757 | 1.589 | 1.445 | 1.321
x2 = 0.165 | 1.536 | 1.393 | 1.274 | 1.166
x2 = 0.2509 | 1.362 | 1.235 | 1.137 | 1.045
x2 = 0.3438 | 1.214 | 1.101 | 1.016 | 0.934
x2 = 0.4391 | 1.099 | 0.999 | 0.922 | 0.852
x2 = 0.5412 | 0.995 | 0.904 | 0.838 | 0.775
x2 = 0.6451 | 0.914 | 0.83 | 0.774 | 0.715
x2 = 0.7589 | 0.836 | 0.763 | 0.711 | 0.66
x2 = 0.8707 | 0.767 | 0.7 | 0.658 | 0.61
